Measured values taken from patent US4937236A, “Anxiolytic N-substituted benzamides” (priority 1987, dated 1990).
Counter-ions that a name gives are not always drawn. Values belong to the compound of their own block, whether it stands above or below them.

How the values were obtained:
gastric emptying = assay: Stomach emptying (gastric emptying of glass beads) in the rat; format: in vivo; design: unit not given here
Description: (5) Stomach emptying in the rat, administering compounds by oral route. (Jacoby, H. I., and Brodie, D. A. Gastroenterol. 52, 676-684, 1967).
All of them show a good prokinetic activity in the gastric emptying of glass beads in the rat.

[1] = tested on: Apomorphine-induced emesis; assay: Apomorphine-induced emesis in the dog; conditions: for APOMORPHINE-INDUCED VOMITING IN THE DOG % Protected animals: 1 mg/kg i.v.
[2] = biological target: T1, 5HT3 receptors located in vagal afferent fibres (Rattus norvegicus, UniProt P35563); assay: Inhibition of the Bezold-Jarisch reflex in the anaesthetized rat; format: in vivo; conditions: iv, read-out: BEZOLD-JARISCH REFLEX IN THE RAT (ID50; μg/kg i.v.)
T1 construct: 5HT3 receptors located in vagal afferent fibres; from tissue; host or cells: vagal afferent fibres of the anaesthetized rat (in vivo)
T1 sequence (P35563 24-483): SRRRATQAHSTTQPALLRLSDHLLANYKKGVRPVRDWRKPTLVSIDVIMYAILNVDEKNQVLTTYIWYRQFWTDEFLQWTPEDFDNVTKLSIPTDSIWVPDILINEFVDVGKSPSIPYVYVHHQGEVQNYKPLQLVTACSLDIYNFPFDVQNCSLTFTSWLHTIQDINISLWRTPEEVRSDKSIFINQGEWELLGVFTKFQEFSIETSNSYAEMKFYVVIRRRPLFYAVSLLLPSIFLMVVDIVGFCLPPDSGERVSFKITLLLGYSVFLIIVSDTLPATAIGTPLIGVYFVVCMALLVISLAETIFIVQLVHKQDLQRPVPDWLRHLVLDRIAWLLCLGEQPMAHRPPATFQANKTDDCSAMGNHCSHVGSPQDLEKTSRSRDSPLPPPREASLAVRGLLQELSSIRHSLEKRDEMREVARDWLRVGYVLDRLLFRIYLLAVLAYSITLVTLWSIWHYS
Description: (1) Stimulation by 5-HT of 5HT3 receptors located in vagal afferent fibres produces a fall in heart rate and blood pressure in the anaesthetized rat (Bezold-Jarisch reflex).

[3] = tested on: Cis-platinum induced emesis; assay: Cis-platinum induced emesis in the dog; format: in vivo
Description: (Gylys, J. A., Dora, K. M. & Buyniski J. P. Res. Comm. Chem. Pathol. Pharmacol. (1979)23: 61-68).

CuSO4-induced emesis = CuSO4-induced emesis in the dog; format: in vivo; conditions: for C4 SO4 - INDUCED VOMITING No EMETIC EPISODES IN THE DOG (% Inh.): 1 mg/kg i.v.
Description: (Kayashima, N., Tanaka, M., Iwasaki, M. & Hayama, T. Japan J. Pharmacol. (1978)28: 775-781).

ED50 [2]: 0.56 µg/kg
Compound: Nc1cc(OCC2CC2)c(C(=O)NC2CN3CCC2CC3)cc1Cl (stereo not shown) [Compound 1, N-(1-azabicyclo[2.2.2]oct-3-yl)-2-cyclopropylmethoxy-4-amino-5-chlorobenzamide]
GASTRIC EMPTYING IN THE RAT [drawing 8] (gastric emptying; 0.01 mg/kg p.o.): 55
GASTRIC EMPTYING IN THE RAT [drawing 8] (gastric emptying; 1.0 mg/kg p.o.): 85
APOMORPHINE-INDUCED VOMITING IN THE DOG % Protected animals [1]: 0%
CISPLATIN-INDUCED VOMITING IN THE DOG (% inhibition) ([3]; 0.03 mg/kg i.v.): 88%
CISPLATIN-INDUCED VOMITING IN THE DOG (% inhibition) ([3]; 0.1 mg/kg p.o.): 85%
C4 SO4 - INDUCED VOMITING No EMETIC EPISODES IN THE DOG (% Inh.) (CuSO4-induced emesis): 40%

Compound: COCCOc1cc(N)c(Cl)cc1C(=O)NC1CN2CCC1CC2 (stereo not shown) [Compound 11, N-(1-azabicyclo[2.2.2]oct-3-yl)-2-methoxyethoxy-4-amino-5-chlorobenzamide]
GASTRIC EMPTYING IN THE RAT [drawing 8] (gastric emptying; 0.01 mg/kg p.o.): 60
GASTRIC EMPTYING IN THE RAT [drawing 8] (gastric emptying; 1.0 mg/kg p.o.): 68
APOMORPHINE-INDUCED VOMITING IN THE DOG % Protected animals [1]: 0%
ED50 [2]: 0.42 µg/kg
CISPLATIN-INDUCED VOMITING IN THE DOG (% inhibition) ([3]; 0.03 mg/kg i.v.): 81%
CISPLATIN-INDUCED VOMITING IN THE DOG (% inhibition) ([3]; 0.1 mg/kg p.o.): 0%
C4 SO4 - INDUCED VOMITING No EMETIC EPISODES IN THE DOG (% Inh.) (CuSO4-induced emesis): 24%

Compound: CN1[C@@H]2CC[C@H]1C[C@H](NC(=O)c1cc(Cl)c(N)cc1OCC1CC1)C2 [Compound 16, N(8-methyl-8-azabicyclo[3.2.1]oct3β-yl)2-cyclopropylmethoxy-4-amino-5-chlorobenzamide]
GASTRIC EMPTYING IN THE RAT [drawing 8] (gastric emptying; 0.01 mg/kg p.o.): 32
GASTRIC EMPTYING IN THE RAT [drawing 8] (gastric emptying; 1.0 mg/kg p.o.): 71
APOMORPHINE-INDUCED VOMITING IN THE DOG % Protected animals [1]: 0%
ED50 [2]: 2.6 µg/kg
CISPLATIN-INDUCED VOMITING IN THE DOG (% inhibition) ([3]; 0.03 mg/kg i.v.): 53%
CISPLATIN-INDUCED VOMITING IN THE DOG (% inhibition) ([3]; 0.1 mg/kg p.o.): 61%
C4 SO4 - INDUCED VOMITING No EMETIC EPISODES IN THE DOG (% Inh.) (CuSO4-induced emesis): 45%

Compound: COCCOc1cc(N)c(Cl)cc1C(=O)N[C@@H]1C[C@H]2CC[C@@H](C1)N2C [Compound 23, N-(8-methyl-8-azabicyclo[3.2.1]oct-3β-yl)-2-(2-methoxyethoxy)-4-amino-5-chlorobenzamide acid fumarate]
GASTRIC EMPTYING IN THE RAT [drawing 8] (gastric emptying; 0.01 mg/kg p.o.): 13
GASTRIC EMPTYING IN THE RAT [drawing 8] (gastric emptying; 1.0 mg/kg p.o.): 61
APOMORPHINE-INDUCED VOMITING IN THE DOG % Protected animals [1]: 0%
ED50 [2]: 0.63 µg/kg
CISPLATIN-INDUCED VOMITING IN THE DOG (% inhibition) ([3]; 0.03 mg/kg i.v.): 31%
CISPLATIN-INDUCED VOMITING IN THE DOG (% inhibition) ([3]; 0.1 mg/kg p.o.): 53%
C4 SO4 - INDUCED VOMITING No EMETIC EPISODES IN THE DOG (% Inh.) (CuSO4-induced emesis): 30%

Compound: CCN(CC)CCNC(=O)c1cc(Cl)c(N)cc1OC [Metoclopramide, N-[2-(diethylamino)ethyl]-2-methoxy-4-amino-5-chlorobenzamide, reference compound]
GASTRIC EMPTYING IN THE RAT [drawing 8] (gastric emptying; 0.01 mg/kg p.o.): 0
GASTRIC EMPTYING IN THE RAT [drawing 8] (gastric emptying; 1.0 mg/kg p.o.): 42
antiemetic activity in apomorphine-induced vomiting in the dog (in words) [1]: very active
APOMORPHINE-INDUCED VOMITING IN THE DOG % Protected animals [1]: 100%
ED50 [2]: 330 µg/kg
CISPLATIN-INDUCED VOMITING IN THE DOG (% inhibition) ([3]; 1 mg/kg i.v.): 69%
CISPLATIN-INDUCED VOMITING IN THE DOG (% inhibition) ([3]; 3 mg/kg p.o.): 85%
activity in CuSO4-induced vomiting in the dog (in words) (CuSO4-induced emesis): decreases the number of emetic episodes
C4 SO4 - INDUCED VOMITING No EMETIC EPISODES IN THE DOG (% Inh.) (CuSO4-induced emesis): 60%

Compound: COc1cc(N)c(Cl)cc1C(=O)NC1CN2CCC1CC2 (stereo not shown) [Zacopride, N-(1-azabicyclo[2.2.2]oct-3-yl)-2-methoxy-4-amino-5-chlorobenzamide, reference compound]
GASTRIC EMPTYING IN THE RAT [drawing 8] (gastric emptying; 0.01 mg/kg p.o.): 51
GASTRIC EMPTYING IN THE RAT [drawing 8] (gastric emptying; 1.0 mg/kg p.o.): 77
antiemetic activity in apomorphine-induced vomiting in the dog (in words) [1]: lack antiemetic activity
APOMORPHINE-INDUCED VOMITING IN THE DOG % Protected animals [1]: 0%
ED50 [2]: 0.21 µg/kg
CISPLATIN-INDUCED VOMITING IN THE DOG (% inhibition) ([3]; 0.03 mg/kg i.v.): 92%
CISPLATIN-INDUCED VOMITING IN THE DOG (% inhibition) ([3]; 0.1 mg/kg p.o.): 88%
activity in CuSO4-induced vomiting in the dog (in words) (CuSO4-induced emesis): totally inactive
C4 SO4 - INDUCED VOMITING No EMETIC EPISODES IN THE DOG (% Inh.) (CuSO4-induced emesis): 0%
